Laboratory results taken from patent US11173137B2, “Compositions and methods to modulate chloride ion channel activity” (The Board of Trustees of the Leland Stanford Junior …, priority 2018, dated 2021).
“And” between values parts separate entries of the source, which are not always exact repeats. Equal values may be shown once. Read-outs that look alike come from different tables or passages of the source.

Legend:
CLC-2 = CLC-2 (Homo sapiens (Human), UniProt P51788); assay: IonWorks Barracuda automated patch-clamp electrophysiology, human CLC-2 cell line; type: cell-based
CLC-2, sequence (P51788 whole entry): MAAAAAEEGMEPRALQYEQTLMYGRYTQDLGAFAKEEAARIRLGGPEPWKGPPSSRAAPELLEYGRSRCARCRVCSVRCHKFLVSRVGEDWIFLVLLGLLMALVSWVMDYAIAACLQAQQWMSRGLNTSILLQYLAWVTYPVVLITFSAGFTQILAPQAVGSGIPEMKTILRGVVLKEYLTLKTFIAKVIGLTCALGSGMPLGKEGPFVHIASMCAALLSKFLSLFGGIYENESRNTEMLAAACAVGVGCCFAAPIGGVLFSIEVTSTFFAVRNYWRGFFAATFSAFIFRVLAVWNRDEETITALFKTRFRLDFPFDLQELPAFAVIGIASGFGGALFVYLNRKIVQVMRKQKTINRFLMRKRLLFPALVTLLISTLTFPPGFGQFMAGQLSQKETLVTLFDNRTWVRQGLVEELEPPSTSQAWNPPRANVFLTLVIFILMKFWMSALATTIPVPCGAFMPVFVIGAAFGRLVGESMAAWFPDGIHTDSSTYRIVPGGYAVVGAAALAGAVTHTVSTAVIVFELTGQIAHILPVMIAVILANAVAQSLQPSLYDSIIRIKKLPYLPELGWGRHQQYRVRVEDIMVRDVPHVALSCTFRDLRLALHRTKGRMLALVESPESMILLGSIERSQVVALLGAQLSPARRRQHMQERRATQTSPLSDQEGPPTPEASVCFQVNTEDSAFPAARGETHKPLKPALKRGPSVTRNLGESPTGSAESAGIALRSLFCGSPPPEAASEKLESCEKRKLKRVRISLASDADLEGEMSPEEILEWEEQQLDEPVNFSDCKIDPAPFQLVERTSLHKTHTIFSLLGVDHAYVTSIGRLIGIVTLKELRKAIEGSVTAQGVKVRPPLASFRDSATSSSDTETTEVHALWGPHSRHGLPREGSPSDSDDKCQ
Source text: FIG. 8, panels A and B depict graphically the Selectivity between CLC-1 and CLC-2. […]

HERG = HERG (Homo sapiens (Human), UniProt Q12809); assay: PDSP primary binding assay and secondary assay; conditions: primary binding assay at 10 μM
Protocol: (§1) Two exemplary compounds, FA44 and FA26, were screened against a panel of CNS receptors, transporters, and ion channels to examine specificity for CLC-2 in the brain. A comprehensive primary binding assay screen was performed through the NIH Psychoactive Drug Screening Program (PDSP) at UNC-Chapel Hill. Secondary or functional assays were performed for compounds showing >50% activity in the primary assay.

mGluR5 = mGluR5 (Homo sapiens (Human), UniProt P41594); assay: PDSP primary binding assay and secondary assay
mGluR5, sequence (P41594 21-1212): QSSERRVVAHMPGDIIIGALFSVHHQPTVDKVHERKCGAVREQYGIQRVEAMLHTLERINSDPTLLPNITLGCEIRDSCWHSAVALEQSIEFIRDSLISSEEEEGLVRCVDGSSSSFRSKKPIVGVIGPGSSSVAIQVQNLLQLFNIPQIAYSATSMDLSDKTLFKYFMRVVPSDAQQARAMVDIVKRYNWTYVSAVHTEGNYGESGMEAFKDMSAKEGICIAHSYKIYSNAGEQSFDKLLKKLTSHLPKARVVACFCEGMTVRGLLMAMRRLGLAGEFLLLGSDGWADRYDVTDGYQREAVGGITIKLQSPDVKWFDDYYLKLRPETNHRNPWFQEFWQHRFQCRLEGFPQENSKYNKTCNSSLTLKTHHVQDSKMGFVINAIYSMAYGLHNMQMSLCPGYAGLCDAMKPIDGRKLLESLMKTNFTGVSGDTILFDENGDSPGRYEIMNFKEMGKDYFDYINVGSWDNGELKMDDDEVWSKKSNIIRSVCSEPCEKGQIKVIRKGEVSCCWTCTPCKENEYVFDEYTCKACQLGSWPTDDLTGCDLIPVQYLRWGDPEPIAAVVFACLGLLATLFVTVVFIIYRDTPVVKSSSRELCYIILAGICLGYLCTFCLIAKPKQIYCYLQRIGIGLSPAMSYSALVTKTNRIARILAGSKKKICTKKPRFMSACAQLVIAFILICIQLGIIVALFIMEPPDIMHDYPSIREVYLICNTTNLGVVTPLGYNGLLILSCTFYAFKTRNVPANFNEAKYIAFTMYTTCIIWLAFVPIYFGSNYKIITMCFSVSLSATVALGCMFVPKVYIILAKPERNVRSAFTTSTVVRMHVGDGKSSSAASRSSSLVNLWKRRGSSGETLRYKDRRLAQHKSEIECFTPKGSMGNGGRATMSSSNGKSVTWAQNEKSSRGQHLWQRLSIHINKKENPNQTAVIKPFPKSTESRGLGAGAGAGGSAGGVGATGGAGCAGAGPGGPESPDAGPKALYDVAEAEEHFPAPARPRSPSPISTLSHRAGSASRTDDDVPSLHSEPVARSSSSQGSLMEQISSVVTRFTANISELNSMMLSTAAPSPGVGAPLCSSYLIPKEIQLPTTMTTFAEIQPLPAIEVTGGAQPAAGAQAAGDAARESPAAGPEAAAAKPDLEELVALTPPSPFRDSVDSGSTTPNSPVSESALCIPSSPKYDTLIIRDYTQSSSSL
Protocol: as §1

M5 = M5 (Homo sapiens (Human), UniProt P08912); assay: PDSP primary binding assay and secondary assay
M5, sequence (P08912 whole entry): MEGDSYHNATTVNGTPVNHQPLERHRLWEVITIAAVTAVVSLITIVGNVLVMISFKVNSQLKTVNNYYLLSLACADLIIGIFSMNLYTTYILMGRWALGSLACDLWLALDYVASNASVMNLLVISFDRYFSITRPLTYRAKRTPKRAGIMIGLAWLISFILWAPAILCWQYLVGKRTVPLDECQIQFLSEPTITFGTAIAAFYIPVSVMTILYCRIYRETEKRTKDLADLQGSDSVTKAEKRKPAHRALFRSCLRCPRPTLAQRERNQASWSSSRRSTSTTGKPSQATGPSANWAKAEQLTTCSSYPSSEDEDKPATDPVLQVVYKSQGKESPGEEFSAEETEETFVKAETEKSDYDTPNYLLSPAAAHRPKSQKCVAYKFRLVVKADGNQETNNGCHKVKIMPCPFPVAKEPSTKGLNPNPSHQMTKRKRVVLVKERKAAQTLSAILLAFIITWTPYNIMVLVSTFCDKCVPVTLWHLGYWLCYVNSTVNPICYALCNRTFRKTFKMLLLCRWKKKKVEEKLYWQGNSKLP
Protocol: as §1

M1 = M1 (Homo sapiens (Human), UniProt P11229); assay: PDSP primary binding assay and secondary assay
M1, sequence (P11229 whole entry): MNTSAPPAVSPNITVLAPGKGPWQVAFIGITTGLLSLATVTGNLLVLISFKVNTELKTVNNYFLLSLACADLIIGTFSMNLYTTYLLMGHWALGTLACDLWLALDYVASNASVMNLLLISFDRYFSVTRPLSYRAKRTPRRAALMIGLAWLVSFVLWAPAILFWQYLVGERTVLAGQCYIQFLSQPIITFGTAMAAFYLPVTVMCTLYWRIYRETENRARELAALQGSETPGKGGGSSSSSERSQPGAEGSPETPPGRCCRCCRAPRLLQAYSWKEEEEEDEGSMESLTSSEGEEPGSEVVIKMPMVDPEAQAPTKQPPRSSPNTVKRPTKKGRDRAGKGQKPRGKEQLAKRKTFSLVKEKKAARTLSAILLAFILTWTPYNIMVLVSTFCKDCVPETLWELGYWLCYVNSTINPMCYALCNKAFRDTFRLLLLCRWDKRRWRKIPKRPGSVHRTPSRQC
Protocol: as §1

Alpha2A = Alpha2A (Homo sapiens (Human), UniProt P08913); assay: PDSP primary binding assay and secondary assay
Alpha2A, sequence (P08913 whole entry): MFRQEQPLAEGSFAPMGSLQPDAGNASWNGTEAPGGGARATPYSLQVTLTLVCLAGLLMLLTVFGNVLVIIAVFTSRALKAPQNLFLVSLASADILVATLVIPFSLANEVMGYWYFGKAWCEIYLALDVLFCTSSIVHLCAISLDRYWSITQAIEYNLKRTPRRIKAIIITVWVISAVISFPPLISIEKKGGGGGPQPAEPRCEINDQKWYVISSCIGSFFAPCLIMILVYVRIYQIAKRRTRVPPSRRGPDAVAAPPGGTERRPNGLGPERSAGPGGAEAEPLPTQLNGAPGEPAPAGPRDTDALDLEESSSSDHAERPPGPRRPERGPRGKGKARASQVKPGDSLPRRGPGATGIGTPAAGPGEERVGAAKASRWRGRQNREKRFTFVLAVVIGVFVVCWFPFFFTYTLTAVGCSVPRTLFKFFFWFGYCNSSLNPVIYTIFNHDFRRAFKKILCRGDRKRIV
Protocol: as §1

M3 = M3 (Homo sapiens (Human), UniProt P20309); assay: PDSP primary binding assay and secondary assay
M3, sequence (P20309 whole entry): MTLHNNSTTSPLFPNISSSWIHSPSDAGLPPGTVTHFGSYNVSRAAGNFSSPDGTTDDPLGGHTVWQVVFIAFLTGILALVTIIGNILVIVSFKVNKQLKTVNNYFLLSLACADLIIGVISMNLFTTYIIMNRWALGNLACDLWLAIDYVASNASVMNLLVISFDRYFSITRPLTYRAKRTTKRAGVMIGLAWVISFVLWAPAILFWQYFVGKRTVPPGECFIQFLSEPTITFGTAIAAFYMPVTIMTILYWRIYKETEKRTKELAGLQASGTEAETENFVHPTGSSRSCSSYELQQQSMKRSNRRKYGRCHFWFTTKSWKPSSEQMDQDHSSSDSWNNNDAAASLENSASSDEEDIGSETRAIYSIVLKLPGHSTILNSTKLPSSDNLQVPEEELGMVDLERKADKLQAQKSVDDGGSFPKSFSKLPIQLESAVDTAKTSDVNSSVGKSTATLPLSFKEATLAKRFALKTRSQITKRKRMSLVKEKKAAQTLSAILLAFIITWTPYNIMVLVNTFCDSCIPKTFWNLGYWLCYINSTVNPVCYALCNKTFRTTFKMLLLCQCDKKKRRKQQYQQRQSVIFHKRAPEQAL
Protocol: as §1

M4 = M4 (Homo sapiens (Human), UniProt P08173); assay: PDSP primary binding assay and secondary assay; conditions: primary binding assay at 10 μM
M4, sequence (P08173 whole entry): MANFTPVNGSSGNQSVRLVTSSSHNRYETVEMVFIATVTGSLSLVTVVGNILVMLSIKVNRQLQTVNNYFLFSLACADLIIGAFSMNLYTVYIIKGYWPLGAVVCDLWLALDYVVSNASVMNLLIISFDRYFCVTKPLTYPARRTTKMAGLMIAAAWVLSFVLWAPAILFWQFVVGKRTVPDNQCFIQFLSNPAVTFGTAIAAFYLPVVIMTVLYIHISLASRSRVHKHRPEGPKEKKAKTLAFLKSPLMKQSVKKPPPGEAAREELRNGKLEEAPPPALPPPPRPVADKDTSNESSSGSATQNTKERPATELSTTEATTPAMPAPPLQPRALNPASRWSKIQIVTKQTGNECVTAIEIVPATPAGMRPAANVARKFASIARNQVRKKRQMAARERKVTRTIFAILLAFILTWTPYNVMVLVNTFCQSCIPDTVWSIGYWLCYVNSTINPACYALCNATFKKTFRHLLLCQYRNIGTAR
Protocol: as §1

5-HT1A = 5-HT1A (Homo sapiens (Human), UniProt P08908); assay: PDSP primary binding assay and secondary assay
5-HT1A, sequence (P08908 whole entry, species assumed): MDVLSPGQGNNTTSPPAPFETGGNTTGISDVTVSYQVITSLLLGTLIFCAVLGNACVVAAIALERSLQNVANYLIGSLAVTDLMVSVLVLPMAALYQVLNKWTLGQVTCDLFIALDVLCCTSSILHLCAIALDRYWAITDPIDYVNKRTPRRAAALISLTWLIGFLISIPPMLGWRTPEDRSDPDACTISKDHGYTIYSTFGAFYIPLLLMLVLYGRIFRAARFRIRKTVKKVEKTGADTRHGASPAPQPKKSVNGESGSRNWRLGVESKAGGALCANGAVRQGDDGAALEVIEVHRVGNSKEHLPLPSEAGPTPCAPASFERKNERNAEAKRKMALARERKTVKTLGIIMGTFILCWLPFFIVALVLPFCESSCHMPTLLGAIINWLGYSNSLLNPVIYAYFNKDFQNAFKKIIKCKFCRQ
Protocol: as §1

Alpha2B = Alpha2B (Homo sapiens (Human), UniProt P18089); assay: PDSP primary binding assay; conditions: primary binding assay at 10 μM
Protocol: as §1

Alpha2C = Alpha2C (Homo sapiens (Human), UniProt P18825); assay: PDSP primary binding assay; conditions: primary binding assay at 10 μM
Protocol: as §1

5-HT2C = 5-HT2C (Homo sapiens (Human), UniProt P28335); assay: PDSP primary binding assay; conditions: primary binding assay at 10 μM
Protocol: as §1

Calcium channel = assay: PDSP primary binding assay; conditions: primary binding assay at 10 μM
Protocol: as §1

D1 = D1 (Homo sapiens (Human), UniProt P21728); assay: PDSP primary binding assay; conditions: primary binding assay at 10 μM
Protocol: as §1

5-HT7 = 5-HT7 (Homo sapiens (Human), UniProt P34969); assay: PDSP primary binding assay; conditions: primary binding assay at 10 μM
Protocol: as §1

Beta3 = Beta3 (Homo sapiens (Human), UniProt P13945); assay: PDSP primary binding assay; conditions: primary binding assay at 10 μM
Protocol: as §1

Oxytocin = Oxytocin (Homo sapiens (Human), UniProt P30559); assay: PDSP primary binding assay; conditions: primary binding assay at 10 μM
Protocol: as §1

MOR = MOR (Homo sapiens (Human), UniProt P35372); assay: PDSP primary binding assay; conditions: primary binding assay at 10 μM
Protocol: as §1

DOR = DOR (Homo sapiens (Human), UniProt P41143); assay: PDSP primary binding assay; conditions: primary binding assay at 10 μM
Protocol: as §1

H3 = H3 (Homo sapiens (Human), UniProt Q9Y5N1); assay: PDSP primary binding assay; conditions: primary binding assay at 10 μM
Protocol: as §1

D5 = D5 (Homo sapiens (Human), UniProt P21918); assay: PDSP primary binding assay; conditions: primary binding assay at 10 μM
Protocol: as §1

PBR = PBR (Homo sapiens (Human), UniProt P30536); assay: PDSP primary binding assay; conditions: primary binding assay at 10 μM
Protocol: as §1

5-HT1B = 5-HT1B (Homo sapiens (Human), UniProt P28222); assay: PDSP primary binding assay; conditions: primary binding assay at 10 μM
Protocol: as §1

M2 = M2 (Homo sapiens (Human), UniProt P08172); assay: PDSP primary binding assay; conditions: primary binding assay at 10 μM
Protocol: as §1

GABAA = assay: PDSP primary binding assay; conditions: primary binding assay at 10 μM
Protocol: as §1

5-HT5A = 5-HT5A (Homo sapiens (Human), UniProt P47898); assay: PDSP primary binding assay; conditions: primary binding assay at 10 μM
Protocol: as §1

KA = assay: PDSP primary binding assay; conditions: primary binding assay at 10 μM
Protocol: as §1

NMDA = assay: PDSP primary binding assay; conditions: primary binding assay at 10 μM
Protocol: as §1

BZP rat brain site = assay: PDSP primary binding assay; conditions: primary binding assay at 10 μM
Protocol: as §1

D2 = D2 (Homo sapiens (Human), UniProt P14416); assay: PDSP primary binding assay; conditions: primary binding assay at 10 μM
Protocol: as §1

NOP = NOP (Homo sapiens (Human), UniProt P41146); assay: PDSP primary binding assay; conditions: primary binding assay at 10 μM
Protocol: as §1

H2 = H2 (Homo sapiens (Human), UniProt P25021); assay: PDSP primary binding assay; conditions: primary binding assay at 10 μM
Protocol: as §1

5-HT1D = 5-HT1D (Homo sapiens (Human), UniProt P28221); assay: PDSP primary binding assay; conditions: primary binding assay at 10 μM
Protocol: as §1

SERT = SERT (Homo sapiens (Human), UniProt P31645); assay: PDSP primary binding assay; conditions: primary binding assay at 10 μM
Protocol: as §1

Beta1 = Beta1 (Homo sapiens (Human), UniProt P08588); assay: PDSP primary binding assay; conditions: primary binding assay at 10 μM
Protocol: as §1

5-HT2A = 5-HT2A (Homo sapiens (Human), UniProt P28223); assay: PDSP primary binding assay; conditions: primary binding assay at 10 μM
Protocol: as §1

Sigma 2 = Sigma 2 (Homo sapiens (Human), UniProt Q5BJF2); assay: PDSP primary binding assay; conditions: primary binding assay at 10 μM
Protocol: as §1

H1 = H1 (Homo sapiens (Human), UniProt P35367); assay: PDSP primary binding assay; conditions: primary binding assay at 10 μM
Protocol: as §1

Alpha1B = Alpha1B (Homo sapiens (Human), UniProt P35368); assay: PDSP primary binding assay; conditions: primary binding assay at 10 μM
Protocol: as §1

**Q.** How did the IC50 (CLC-2; Table 2, read-out: IC50 (CLC-2)) turn out when `O=C(O)c1ccccc1Nc1c(Cl)ccc(OCc2ccccc2)c1Cl` [AK3-99B] was run?
**A.** 1.7 ± 0.2 µM

**Q.** What about the IC50 (CLC-2; n = 4 cells, four concentrations of each compound, IonWorks Barracuda, read-out: IC50 (μM) against CLC-2) of the same compound?
**A.** 0.62 µM

**Q.** And the IC50 (CLC-2; text and FIG. 3, Table 1 series, read-out: IC50 against CLC-2)?
**A.** ~0.6 µM and 0.6 µM

**Q.** And the “% (10 μM)” value (HERG)?
**A.** −15.95%

**Q.** What about the “% (10 μM)” value (mGluR5; primary binding assay at 10 μM) of the same compound?
**A.** 47.44%

**Q.** And the Ki (mGluR5; secondary or functional assay)?
**A.** > 10000 nM

**Q.** What about the “% (10 μM)” value (M5; primary binding assay at 10 μM) of the same compound?
**A.** 56.99%

**Q.** What about the Ki (M5; secondary or functional assay) of the same compound?
**A.** > 10000 nM

**Q.** And the “% (10 μM)” value (M1; primary binding assay at 10 μM)?
**A.** 58.54%

**Q.** What about the Ki (M1; secondary or functional assay) of the same compound?
**A.** > 10000 nM

**Q.** What about the “% (10 μM)” value (Alpha2A; primary binding assay at 10 μM) of the same compound?
**A.** 65.08%

**Q.** And the Ki (Alpha2A; secondary or functional assay)?
**A.** 3000 nM

**Q.** What about the “% (10 μM)” value (M3; primary binding assay at 10 μM) of the same compound?
**A.** 65.66%

**Q.** What about the Ki (M3; secondary or functional assay) of the same compound?
**A.** > 10000 nM

**Q.** What about the “% (10 μM)” value (M4) of the same compound?
**A.** −3.01%

**Q.** And the “% (10 μM)” value (5-HT1A; primary binding assay at 10 μM)?
**A.** 50.00%

**Q.** What about the Ki (5-HT1A; secondary or functional assay) of the same compound?
**A.** > 10000 nM

**Q.** And the “% (10 μM)” value (Alpha2B)?
**A.** 15.62%

**Q.** And the “% (10 μM)” value (Alpha2C)?
**A.** 17.28%

**Q.** What about the “% (10 μM)” value (5-HT2C) of the same compound?
**A.** −11.17%

**Q.** What about the “% (10 μM)” value (Calcium channel) of the same compound?
**A.** 12.22%

**Q.** What about the “% (10 μM)” value (D1) of the same compound?
**A.** 27.05%

**Q.** And the “% (10 μM)” value (5-HT7)?
**A.** −29.75%

**Q.** What about the “% (10 μM)” value (Beta3) of the same compound?
**A.** 32.58%

**Q.** What about the “% (10 μM)” value (Oxytocin) of the same compound?
**A.** 8.80%

**Q.** And the “% (10 μM)” value (MOR)?
**A.** 9.03%

**Q.** And the “% (10 μM)” value (DOR)?
**A.** 16.22%

**Q.** What about the “% (10 μM)” value (H3) of the same compound?
**A.** −5.97%

**Q.** What about the “% (10 μM)” value (D5) of the same compound?
**A.** 27.29%

**Q.** What about the “% (10 μM)” value (PBR) of the same compound?
**A.** 2.28%

**Q.** What about the “% (10 μM)” value (5-HT1B) of the same compound?
**A.** −0.25%

**Q.** What about the “% (10 μM)” value (M2) of the same compound?
**A.** 14.57%

**Q.** What about the “% (10 μM)” value (GABAA) of the same compound?
**A.** −17.65%

**Q.** What about the “% (10 μM)” value (5-HT5A) of the same compound?
**A.** −5.77%

**Q.** And the “% (10 μM)” value (KA)?
**A.** 13.56%

**Q.** And the “% (10 μM)” value (NMDA)?
**A.** 39.29%

**Q.** And the “% (10 μM)” value (BZP rat brain site)?
**A.** 40.75%

**Q.** What about the “% (10 μM)” value (D2) of the same compound?
**A.** −6.96%

**Q.** And the “% (10 μM)” value (NOP)?
**A.** 24.65%

**Q.** What about the “% (10 μM)” value (H2) of the same compound?
**A.** 25.62%

**Q.** What about the “% (10 μM)” value (5-HT1D) of the same compound?
**A.** 6.77%

**Q.** What about the “% (10 μM)” value (SERT) of the same compound?
**A.** 4.65%

**Q.** What about the “% (10 μM)” value (Beta1) of the same compound?
**A.** −13.11%

**Q.** What about the “% (10 μM)” value (5-HT2A) of the same compound?
**A.** 19.70%

**Q.** What about the “% (10 μM)” value (Sigma 2) of the same compound?
**A.** −9.10%

**Q.** What about the “% (10 μM)” value (H1) of the same compound?
**A.** −4.62%

**Q.** And the “% (10 μM)” value (Alpha1B)?
**A.** 4.33%
